Test results published in the supplement of paper PMC10307832.

How the values were obtained:
Experiment in all cases: relative viability (nuclei count vs DMSO), 5 days (fraction); higher = more cells survive
[1] = compound: Cn1cc(-c2cnn3c(N)c(Br)c([C@@H]4CCCNC4)nc23)cn1 + Cc1nc(NC(=O)N2CCC[C@H]2C(N)=O)sc1-c1ccnc(C(C)(C)C(F)(F)F)c1 [Alpelisib] (partner 2 µM)
Summary of the method: (§1)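 Relative viability was taken as the ratio of nuclei in treated wells to nuclei in vehicle wells. Lung cancer cell lines in 1536-well plates received compounds by pin tool one day after seeding, either one drug alone or a fixed anchor-drug dose plus five library-drug doses (not always all listed) in √10 steps. Nuclei were counted on 4× images after 5 days of treatment, and values are medians of duplicate plates.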

[2] = compound: Cn1cc(-c2cnn3c(N)c(Br)c([C@@H]4CCCNC4)nc23)cn1 + Nc1ncn([C@H]2C[C@H](O)[C@@H](CO)O2)c(=O)n1 [Decitabine] (partner 2 µM)
Summary of the method: as §1

[3] = compound: Cn1cc(-c2cnn3c(N)c(Br)c([C@@H]4CCCNC4)nc23)cn1 + CS(=O)(=O)N1CCN(Cc2cc3nc(-c4cccc5[nH]ncc45)nc(N4CCOCC4)c3s2)CC1 [Pictilisib] (partner 1 µM)
Summary of the method: as §1

[4] = compound: Cn1cc(-c2cnn3c(N)c(Br)c([C@@H]4CCCNC4)nc23)cn1 + C[C@]1(O)C[C@@H](c2nc(-c3ccc4ccc(-c5ccccc5)nc4c3)c3c(N)nccn32)C1 [Linsitinib] (partner 1 µM)
Summary of the method: as §1

Cell Line	relative viability ([1]; first compound 0.05 µM)	relative viability ([1]; first compound 0.1581 µM)	relative viability ([1]; first compound 0.5 µM)	relative viability ([1]; first compound 1.581 µM)	relative viability ([1]; first compound 5 µM)	relative viability ([2]; first compound 0.05 µM)	relative viability ([2]; first compound 0.1581 µM)	relative viability ([2]; first compound 0.5 µM)	relative viability ([2]; first compound 1.581 µM)	relative viability ([2]; first compound 5 µM)	relative viability ([3]; first compound 0.05 µM)	relative viability ([3]; first compound 0.1581 µM)	relative viability ([3]; first compound 0.5 µM)	relative viability ([3]; first compound 1.581 µM)	relative viability ([3]; first compound 5 µM)	relative viability ([4]; first compound 0.05 µM)	relative viability ([4]; first compound 0.1581 µM)	relative viability ([4]; first compound 0.5 µM)	relative viability ([4]; first compound 1.581 µM)	relative viability ([4]; first compound 5 µM)
COR-L 105	0.962	1	0.978	0.734	0.572	0.66	0.703	0.563	0.597	0.608	0.459	0.4	0.376	0.376	0.385	0.898	0.719	0.89	0.878	0.645
LK-2	1.07	0.945	1.11	0.618	0.595	0.323	0.337	0.254	0.272	0.23	0.597	0.508	0.574	0.444	0.306	0.548	0.446	0.51	0.369	0.317
NCI-H727	0.575	0.535	0.534	0.412	0.361	0.919	0.858	0.923	0.696	0.705	0.411	0.354	0.604	0.276	0.22	0.189	0.261	0.235	0.289	0.236
RERF-LC-KJ	0.849	0.846	0.892	0.708	0.717	0.822	0.85	0.636	0.549	0.628	0.593	0.53	0.384	0.359	0.346	0.932	0.936	0.914	0.809	0.749
NCI-H2023	0.494	0.497	0.48	0.3	0.193	0.228	0.219	0.21	0.167	0.127	0.268	0.226	0.194	0.143	0.11	0.582	0.452	0.421	0.244	0.135
NCI-H322M	0.765	0.799	0.863	0.756	0.678	0.617	0.706	0.65	0.635	0.44	0.542	0.5	0.421	0.475	0.377	0.86	0.943	0.889	0.864	0.828
NCI-H1666	1.02	1.01	0.853	0.807	0.785	0.629	0.699	0.719	0.698	0.713	0.657	0.429	0.338	0.464	0.413	0.896	0.745	0.653	0.714	0.711
NCI-H1648	–	–	–	–	–	0.383	0.483	0.487	0.467	0.504	–	–	–	–	–	–	–	–	–	–
NCI-H2087	1.29	1.17	1.21	0.98	0.938	0.258	0.25	0.231	0.331	0.347	0.821	1	0.95	0.852	0.803	1.1	1.07	0.998	1.04	0.857
LU99A	0.534	0.541	0.492	0.491	0.388	0.912	0.92	0.875	0.822	1.01	0.308	0.296	0.29	0.277	0.225	0.533	0.622	0.496	0.557	0.422
HCC-366	0.439	0.539	0.493	0.368	0.156	0.307	0.338	0.334	0.347	0.247	0.278	0.17	0.156	0.205	0.263	0.71	0.739	0.483	0.521	0.18
EKVX	0.908	1.05	0.91	0.694	0.753	0.768	0.414	0.343	0.571	0.41	0.507	0.506	0.507	0.469	0.396	1.02	1.06	0.946	0.68	0.874
NCI-H522	–	–	–	–	–	0.675	0.619	0.664	0.669	0.642	–	–	–	–	–	–	–	–	–	–
NCI-H1755	1.03	1.05	0.817	0.873	0.879	0.722	0.81	0.774	0.793	0.855	0.472	0.411	0.452	0.292	0.334	1.07	1.04	0.978	0.924	0.972
NCI-H647	1.16	1	1.05	0.331	0.444	0.434	0.522	0.42	0.409	0.143	0.485	0.409	0.368	0.291	0.341	1.12	1.24	0.85	0.796	0.42
LC-2-ad	0.873	1.04	0.837	0.917	0.838	0.856	0.811	0.856	0.781	0.908	0.546	0.466	0.335	0.349	0.272	0.907	0.891	0.821	0.884	0.86
NCI-H1793	0.773	0.878	0.709	0.666	0.58	0.532	0.543	0.542	0.498	0.178	0.306	0.411	0.308	0.21	0.191	0.983	1.18	0.87	0.83	0.513
HCC-827	0.992	1.04	1.03	1.06	1.06	0.34	0.38	0.339	0.361	0.305	0.999	1.13	0.974	1	0.928	0.934	0.958	0.947	1.05	0.953
HCC-78	0.365	0.334	0.372	0.354	0.289	0.733	0.729	0.783	0.675	0.492	0.245	0.246	0.11	0.155	0.154	0.507	0.519	0.524	0.604	0.385

Cell Line	relative viability ([1]; first compound 0.05 µM)	relative viability ([1]; first compound 0.1581 µM)	relative viability ([1]; first compound 0.5 µM)	relative viability ([1]; first compound 1.581 µM)	relative viability ([1]; first compound 5 µM)	relative viability ([2]; first compound 0.05 µM)	relative viability ([2]; first compound 0.1581 µM)	relative viability ([2]; first compound 0.5 µM)	relative viability ([2]; first compound 1.581 µM)	relative viability ([2]; first compound 5 µM)	relative viability ([3]; first compound 0.05 µM)	relative viability ([3]; first compound 0.1581 µM)	relative viability ([3]; first compound 0.5 µM)	relative viability ([3]; first compound 1.581 µM)	relative viability ([3]; first compound 5 µM)	relative viability ([4]; first compound 0.05 µM)	relative viability ([4]; first compound 0.1581 µM)	relative viability ([4]; first compound 0.5 µM)	relative viability ([4]; first compound 1.581 µM)	relative viability ([4]; first compound 5 µM)
NCI-H2085	1.01	1.04	0.955	0.868	0.769	0.532	0.594	0.551	0.545	0.624	0.508	0.441	0.57	0.403	0.469	0.85	0.885	0.859	0.824	0.779
PC-14	0.939	1.14	0.883	0.858	0.485	0.237	0.2	0.206	0.186	0.123	0.73	0.685	0.558	0.504	0.248	0.854	1.11	1.05	0.877	0.578
NCI-H2342	–	–	–	–	–	0.728	0.731	0.696	0.639	0.742	–	–	–	–	–	–	–	–	–	–
A-427	1.11	1.05	1.15	0.977	1.01	0.534	0.591	0.555	0.544	0.33	0.675	0.661	0.819	0.643	0.509	1.12	1.15	1.06	1.06	1
H3255	0.776	0.722	0.684	0.626	0.494	0.624	0.586	0.585	0.647	0.474	0.489	0.488	0.427	0.425	0.327	0.989	1.05	0.929	0.769	0.684
HCC-44	0.876	0.899	0.759	0.747	0.786	0.887	1.06	1.04	0.969	0.964	0.566	0.577	0.63	0.465	0.427	0.685	0.872	0.821	0.65	0.631
NCI-H1734	0.708	0.695	0.626	0.596	0.58	0.518	0.491	0.49	0.437	0.448	0.506	0.46	0.475	0.382	0.358	0.942	0.932	0.901	0.778	0.744
NCI-H2228	0.794	1.15	0.87	0.541	0.372	–	–	–	–	–	0.258	0.286	0.297	0.355	0.351	0.975	0.895	0.628	0.586	0.459
ABC-1	1.14	1.03	0.814	0.917	0.401	–	1.3	1.02	1.18	0.731	0.763	0.666	0.721	0.54	0.341	0.801	1.01	0.781	0.716	0.288
COR-L23	0.768	1.09	0.981	0.589	0.306	0.407	0.489	0.481	0.354	0.248	0.952	1.16	0.597	0.447	0.257	0.835	1.16	1.05	0.688	0.363
NCI-H661	0.596	0.611	0.521	0.667	0.297	0.551	0.578	0.529	0.462	0.373	0.321	0.432	0.441	0.291	0.357	0.557	0.592	0.579	0.479	0.314
ChaGo-K-1	–	–	–	–	–	0.52	0.559	0.526	0.563	0.601	0.708	0.672	0.65	0.617	0.501	–	–	–	–	–
NCI-H1650	–	–	–	–	–	0.445	0.478	0.373	0.445	0.3	0.66	0.654	0.681	0.479	0.24	–	–	–	–	–
EBC-1	0.902	0.913	0.704	0.774	0.753	–	–	–	–	–	0.466	0.36	0.37	0.265	0.221	0.937	1.09	0.933	0.884	0.799
NCI-H1703	0.374	0.318	0.259	0.161	0.139	–	–	–	–	–	0.237	0.183	0.178	0.156	0.155	0.72	0.586	0.539	0.336	0.119
CAL-12T	1.27	1.29	0.937	0.716	0.228	–	–	–	–	–	0.416	0.45	0.525	0.389	0.244	0.786	0.929	0.809	0.616	0.262
NCI-H1563	0.827	0.835	0.935	0.8	0.762	–	–	–	–	–	0.581	0.63	0.658	0.585	0.595	1.13	1.27	1.26	1.17	0.848
NCI-H2170	0.865	0.764	0.654	0.705	0.88	0.503	0.491	0.459	0.473	0.516	0.281	0.299	0.262	0.274	0.295	–	–	–	–	–
